Results: US7553867B2, “Furan or thiophene derivative and medicinal use thereof” (Takeda Pharmaceutical Company Limited, priority 2002, dated 2009)

target: T1, PPARα-RXRα heterodimer (Homo sapiens, UniProt Q07869); test: PPARα-RXRα heterodimer ligand activity (luciferase reporter, transfected COS-1 cells); assay type: cell-based; settings: luciferase activity at 10 nM compound relative to control without compound as 1
T1 construct: expressed in transfected cells; host or cells: COS-1 (transient; pMCMVneo-hPPARα + pMCMVneo-hRXRα)
T1 sequence (Q07869 1-468): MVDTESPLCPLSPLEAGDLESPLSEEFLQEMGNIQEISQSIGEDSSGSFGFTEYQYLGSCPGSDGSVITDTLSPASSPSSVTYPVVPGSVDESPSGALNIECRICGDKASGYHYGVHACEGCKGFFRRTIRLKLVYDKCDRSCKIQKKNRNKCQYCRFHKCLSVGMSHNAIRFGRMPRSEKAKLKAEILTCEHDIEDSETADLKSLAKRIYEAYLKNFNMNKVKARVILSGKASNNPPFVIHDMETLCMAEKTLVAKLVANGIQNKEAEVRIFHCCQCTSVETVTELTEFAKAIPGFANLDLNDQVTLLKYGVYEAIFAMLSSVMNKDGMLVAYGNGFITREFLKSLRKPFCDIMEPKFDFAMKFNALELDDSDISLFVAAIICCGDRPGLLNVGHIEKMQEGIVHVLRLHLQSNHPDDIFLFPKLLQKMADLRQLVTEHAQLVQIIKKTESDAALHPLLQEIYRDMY
T1 sequence (P19793 1-462 partner): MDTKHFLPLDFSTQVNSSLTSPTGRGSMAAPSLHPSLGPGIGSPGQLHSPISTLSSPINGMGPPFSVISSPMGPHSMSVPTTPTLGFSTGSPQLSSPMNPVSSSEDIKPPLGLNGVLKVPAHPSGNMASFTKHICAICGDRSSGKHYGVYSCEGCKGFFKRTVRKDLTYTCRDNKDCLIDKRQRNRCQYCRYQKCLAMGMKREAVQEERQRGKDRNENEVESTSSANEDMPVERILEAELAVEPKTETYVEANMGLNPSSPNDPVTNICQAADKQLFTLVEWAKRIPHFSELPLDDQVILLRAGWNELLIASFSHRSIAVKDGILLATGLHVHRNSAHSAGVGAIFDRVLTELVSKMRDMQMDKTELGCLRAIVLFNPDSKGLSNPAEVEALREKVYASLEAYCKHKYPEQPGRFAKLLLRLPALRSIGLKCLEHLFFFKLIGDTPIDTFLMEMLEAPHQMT
Description: At 18 to 24 hours after transfection carried out in Reference Example 12a, COS-1 cells were collected, suspended in DMEM medium [manufactured by Life Technologies, Inc., USA] containing 0.1% BSA (fatty acid-free) (produced by Waco Pure Chemicals Industries, Ltd.), and inoculated to each well of a 96-well white plate (produced by Corning, USA) at 1×10^4 cells/well in 80 μl. Subsequently, 20 μl of a test compound was added, and the plate was incubated at 37° C. in a carbon dioxide gas incubator for 36 to 48 hours. After removal of the medium from the 96-well white plate, 40 μl of PicaGene LT 7.5 (produced by Waco Pure Chemicals Industries, Ltd.) diluted twofold with HBSS (HANKS' BALANCED SALT SOLUTION) (produced by BIO WHITTAKER) was added, and after stirring, the luciferase activity was determined using 1420 ARVO Multilabel Counter [produced by Wallac].
The fold induction was calculated from the luciferase activity for the well to which 10 nM of the compound is added, relative to the luciferase activity of a control to which the compound is not added as 1. Results are shown in [Table 3].
A COS-1 cell was inoculated in a cell culture flask (produced by Corning, USA) of 150 cm^2 at 5×10^6 cells/50 ml, and incubated under the conditions of 37° C. and 5% CO2 for 24 hours. Transfection was carried out with lipofectamine (produced by Invitrogen, USA). A transfection mixture solution was prepared by mixing 125 μl of lipofectamine, 100 μl of PLUS Reagent, 2.5 μg of pMCMVneo-hPPARα (obtained in Reference Example 11a), 2.5 μg of pMCMVneo-hRXRα (obtained in Reference Example 4a), 5 μg of reporter plasmid pGL3-4ERPP-TK neo (obtained in Reference Example 5a) and 5 μg of pRL-tk [produced by Promega, USA] with 5 ml of opti-MEM (produced by Invitrogen, USA). To COS-1 cell washed with opti-MEM, the above-mentioned transfection mixture solution and 20 ml of opti-MEM were added, and then incubated under the conditions of 37° C. and 5% CO2 for 3 hours. Then, 25 ml of DMEM medium [manufactured by Life Technologies, Inc., USA] containing 0.1% fatty acid-free bovine serum albumin (BSA) (produced by Waco Pure Chemicals Industries, Ltd.) was added thereto, and then incubated under the conditions of 37° C. and 5% CO2 for 18 to 24 hours.

SMILES	fold induction at 0.01 µM
Cc1oc(-c2ccc(F)cc2)cc1C(=O)Nc1cccc(CSCC(=O)O)c1 [Example 1, [(3{[5-(4-Fluorophenyl)-2-methyl-3-furoyl]amino}benzyl)thio]acetic acid]	10.2
CC(C)c1oc(-c2ccc(C(F)(F)F)cc2)cc1C(=O)Nc1cccc(CSCC(=O)O)c1 [Example 2(1), {[3-({2-Isopropyl-5-[4-(trifluoromethyl)phenyl]-3-furoyl}amino)benzyl]thio}acetic acid]	10.9
CCc1oc(-c2ccc(C(F)(F)F)cc2)cc1COc1cccc(CSCC(=O)O)c1 [Example 5(5)]	10.1
Cc1oc(-c2ccc(C(F)(F)F)cc2)cc1COc1cccc(CSCC(=O)O)c1 [Example 6(2), {[3-({2-Methyl-5-[4-(trifluoromethyl)phenyl]-3-furyl}methoxy)benzyl]thio}acetic acid]	9.2

target: T2, human GPR40 (Homo sapiens, UniProt O14842); test: Receptor function regulating action (agonist action) for GPR40, intracellular calcium by FLIPR in CHO cells; assay type: cell-based; settings: CHO cells expressing human GPR40; change of fluorescence intensity at 30 seconds after reaction initiation
T2 construct: expressed in transfected cells; host or cells: CHO cell strain (No. 104)
Description: CHO cell strain (No. 104) which have had expressed human GPR40 was diluted to contain 3×10^4 cells/100 μL, and added to a Black walled 96-well plate (Costar) at 100 μL/well, and incubated overnight in CO2 incubator. Change of intracellular calcium concentration was measured with FLIPR (Molecular Device). The method is as follows. 50 μg of Fluo-3AM (DOJIN) was dissolved in 21 μL of DMSO (DOJIN), and the same amount of 20% pluronic acid (Molecular Probes) was further added thereto, and the mixture was mixed. The mixture was added to 10.6 mL of an assay buffer [prepared by adding 10 mL of solution which was produced by adding 20 mL of 1 M HEPES (pH 7.4) (DOJIN) to 1 L of HBSS (Invitrogen), dissolving 710 mg of probenecid (Sigma) in 5 mL of 1N NaOH, and further adding 5 mL of the above-mentioned HBSS/HEPES solution thereto and mixing it.] containing 105 μL of fetal bovine serum, to give a fluorescent dye solution. The medium of the cell plate was removed, and immediately, the fluorescent dye solution was added at 100 μL/well, and incubated in CO2 incubator for 1 hour, allowing the fluorescent dye to be incorporated into the cells. The cells after incubation were washed with the above-mentioned assay buffer. The compound to be added to the cells was diluted with the assay buffer to each concentration, added to the plate for the test sample. After conducting the above-mentioned pretreatment, intracellular calcium concentration change after adding the compound was measured in FLIPR to investigate the agonist action. By dose-response curve with the change of fluorescence intensity value at 30 seconds after reaction initiation, EC50 value was calculated.

T2 sequence (O14842 whole entry): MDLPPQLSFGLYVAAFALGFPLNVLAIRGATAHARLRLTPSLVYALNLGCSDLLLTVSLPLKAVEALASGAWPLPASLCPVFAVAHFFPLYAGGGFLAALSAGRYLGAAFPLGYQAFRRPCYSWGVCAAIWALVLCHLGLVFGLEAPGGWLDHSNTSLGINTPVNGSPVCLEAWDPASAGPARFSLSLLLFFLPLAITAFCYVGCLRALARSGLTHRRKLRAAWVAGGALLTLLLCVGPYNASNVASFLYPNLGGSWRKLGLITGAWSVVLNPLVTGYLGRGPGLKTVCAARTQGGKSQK

SMILES	EC50
Cc1cc(OCc2cc(-c3ccc(F)cc3)oc2C)ccc1CCC(=O)O [Example 5(8), 3-(4-{[5-(4-Fluorophenyl)-2-methyl-3-furyl]methoxy}-2-methylphenyl)propionic acid]	100 nM
Cc1cc(OCc2cc(-c3ccc(C(F)(F)F)cc3)oc2C(C)C)ccc1CCC(=O)O [Example 5(10), 3-[4-({2-Isopropyl-5-[4-(trifluoromethyl)phenyl]-3-furyl}methoxy)-2-methylphenyl]propionic acid]	870 nM
CCCCc1oc(-c2ccc(C(F)(F)F)cc2)cc1COc1ccc(CCC(=O)O)c(C)c1 [Example 5(11), 3-[4-({2-Butyl-5-[4-(trifluoromethyl)phenyl]-3-furyl}methoxy)-2-methylphenyl]propionic acid]	580 nM
Cc1oc(-c2ccc(C(F)(F)F)cc2)cc1COc1ccc(OCC(=O)O)cc1 [Example 6(7), [4-({2-Methyl-5-[4-(trifluoromethyl)phenyl]-3-furyl}methoxy)phenoxy]acetic acid]	290 nM
CCCCC/C=C\C/C=C\C/C=C\CCCCC(=O)O [γ-linolenic acid]	2000 nM

system: not given; test: not given; settings: not given

SMILES	melting point
Cc1cc(OCc2cc(-c3ccc(F)cc3)oc2C)ccc1CCC(=O)O [Example 5(8), 3-(4-{[5-(4-Fluorophenyl)-2-methyl-3-furyl]methoxy}-2-methylphenyl)propionic acid]	123 to 125 °C
Cc1cc(OCc2cc(-c3ccc(C(F)(F)F)cc3)oc2C(C)C)ccc1CCC(=O)O [Example 5(10), 3-[4-({2-Isopropyl-5-[4-(trifluoromethyl)phenyl]-3-furyl}methoxy)-2-methylphenyl]propionic acid]	108 to 109 °C
CCCCc1oc(-c2ccc(C(F)(F)F)cc2)cc1COc1ccc(CCC(=O)O)c(C)c1 [Example 5(11), 3-[4-({2-Butyl-5-[4-(trifluoromethyl)phenyl]-3-furyl}methoxy)-2-methylphenyl]propionic acid]	118 to 119 °C
Cc1oc(-c2ccc(C(F)(F)F)cc2)cc1COc1ccc(OCC(=O)O)cc1 [Example 6(7), [4-({2-Methyl-5-[4-(trifluoromethyl)phenyl]-3-furyl}methoxy)phenoxy]acetic acid]	168 to 169 °C
Cc1oc(-c2ccc(C(F)(F)F)cc2)cc1CCc1ncc(CC(=O)O)s1 [Example 13(1), [2-(2-{2-Methyl-5-[4-(trifluoromethyl)phenyl]-3-furyl}ethyl)-1,3-thiazol-5-yl]acetic acid]	143 to 145 °C
Cc1nc(CCc2cc(-c3ccc(C(F)(F)F)cc3)oc2C)sc1CC(=O)O [Example 13(2), [4-Methyl-2-(2-{2-methyl-5-[4-(trifluoromethyl)phenyl]-3-furyl}ethyl)-1,3-thiazol-5-yl]acetic acid]	168 to 169 °C
Cc1oc(-c2ccc(C(F)(F)F)cc2)cc1CCc1nc(C(C)C)c(CC(=O)O)s1 [Example 13(3), [4-Isopropyl-2-(2-{2-methyl-5-[4-(trifluoromethyl)phenyl]-3-furyl}ethyl)-1,3-thiazol-5-yl]acetic acid]	176 to 177 °C
Cc1nc(CCCc2cc(-c3ccc(C(F)(F)F)cc3)oc2C)sc1CC(=O)O [Example 13(4), [4-Methyl-2-(3-{2-methyl-5-[4-(trifluoromethyl)phenyl]-3-furyl}propyl)-1,3-thiazol-5-yl]acetic acid]	162 to 163 °C
Cc1oc(-c2ccc(C(F)(F)F)cc2)cc1CCc1ncc(CC(=O)O)o1 [Example 13(5), [2-(2-{2-Methyl-5-[4-(trifluoromethyl)phenyl]-3-furyl}ethyl)-1,3-oxazol-5-yl]acetic acid]	143 to 144 °C
Cc1nc(CCc2cc(-c3ccc(C(F)(F)F)cc3)oc2C)oc1CC(=O)O [Example 13(6), [4-Methyl-2-(2-{2-methyl-5-[4-(trifluoromethyl)phenyl]-3-furyl}ethyl)-1,3-oxazol-5-yl]acetic acid]	120 to 121 °C
Cc1oc(-c2ccc(C(F)(F)F)cc2)cc1CCc1nc(C(C)C)c(CC(=O)O)o1 [Example 13(7), [4-Isopropyl-2-(2-{2-methyl-5-[4-(trifluoromethyl)phenyl]-3-furyl}ethyl)-1,3-oxazol-5-yl]acetic acid]	126 to 128 °C
Cc1cc(-c2ccc(C(F)(F)F)cc2)oc1COc1ccc(CC(C)(C)C(=O)O)cc1 [Example 20(1), 2,2-Dimethyl-3-[4-({3-methyl-5-[4-(trifluoromethyl)phenyl]-2-furyl}methoxy)phenyl]propionic acid]	124 to 126 °C
Cc1cc(-c2ccc(C(F)(F)F)cc2)oc1COc1ccc(OC(C)(C)C(=O)O)cc1 [Example 20(2), 2-Methyl-2-[4-({3-methyl-5-[4-(trifluoromethyl)phenyl]-2-furyl}methoxy)phenoxy]propionic acid]	116 to 117 °C
CCOC(=O)C(C)(C)Oc1ccc(/C=C\c2cc(-c3ccc(C(F)(F)F)cc3)oc2C)cc1 [Example 21-b, Ethyl 2-methyl-2-[4-((Z)-2-{2-methyl-5-[4-(trifluoromethyl)phenyl]-3-furyl}ethenyl)phenoxy]propionate]	84 to 85 °C
Cc1oc(-c2ccc(C(F)(F)F)cc2)cc1/C=C/c1ccc(OC(C)(C)C(=O)O)cc1 [Example 22(1), 2-Methyl-2-[4-((E)-2-{2-methyl-5-[4-(trifluoromethyl)phenyl]-3-furyl}ethenyl)phenoxy]propionic acid]	140 to 141 °C
Cc1oc(-c2ccc(C(F)(F)F)cc2)cc1/C=C\c1ccc(OC(C)(C)C(=O)O)cc1 [Example 22(2), 2-Methyl-2-[4-((Z)-2-{2-methyl-5-[4-(trifluoromethyl)phenyl]-3-furyl}ethenyl)phenoxy]propionic acid]	117 to 118 °C
